Reference: patent US20060004088A1, “Furan derivatives for preventing and curing osteoporosis and pharmaceutical compositions containing the same” (OCT INC., priority 2002, published 2006)
Entries after “also recorded” stand apart in the source; their conditions may differ.

Assays:
osteoprotegerin (OPG) = assay: Osteoprotegerin (OPG) expression in MG63 cells, OPG ELISA; type: cell-based, human; conditions: for OPG expression level in MG63 cells, %: control = 100
Experimental: In the following tests, three kinds of cell lines were used. The human osteosarcoma cell lines, MG-63 (ATCC No. CRL-1427) and HOS (ATCC No. CRL-1543), and mouse muscle C2C12 muscle cells (ATCC No. CRL-1772) were purchased from ATCC (American Type Culture Collection, Rockville, USA), and cultured in Dulbecco's modified Eagle's medium (DMEM) supplemented with 10% fetal bovine serum (FBS).
When MG63 cells grew confluently on 96-well plates, […] of FBS-free DMEM containing various concentrations of the Compound 1 was added to each well. After incubation for 16 hrs, the culture supernatants were collected. The amount of OPG released into the medium was determined using an OPG ELISA kit.

[1] = tested on: female white mice with osteoporosis induced by ovariectomy; assay: Preventive effect 1 on osteoporosis, tibia histology, oral administration; type: in vivo; conditions: oral for four weeks immediately after ovariectomy
Experimental: In order to evaluate effects of the compound of the present invention on treatment and prevention of osteoporosis, female white mice with osteoporosis induced by ovariectomy were used as a disease model. After ovariectomy, mice were administered with the compound of the present invention. Tibias were dissected from the mice, and observed histologically.
After anesthetizing female white mice with 100 mg/kg of Ketamine (Ketara) and 0.15 ml/kg of 2% Xylazine (Rompun), the lumbar dorsum is shaved bilaterally and the exposed skin was prepared for aseptic surgery by a 10% povidone-iodine scrub followed by a 70% alcohol wipe.
A 1-cm incision was made in the central region of the abdomen, and the ovary was identified along with the uterus with caution not to damage the main organs such as the liver and diaphragm. After ligating the uterus with a thread for suturing, the exposed ovary was severed toward both sides and removed. Thereafter, each organ was relocated to its original position, and the incision was closed with a thread for suturing in an interrupted pattern. […]
The daily dosage of the Compound 1 per female white mouse was determined based on 250 g body weight. […] With caution not to exchange the water bottles between the groups, everyday, the number of mice was recorded, and the mixture was prepared based on the number of mice. […]

[2] = tested on: osteoclast pregenitor cells; assay: Inhibition rates of furan derivatives versus osteoclast formation (TRAP staining); type: cell-based, mice; conditions: TRAP-positive multinucleated cells, untreated control set as 100%
In short: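 Non-adherent mouse bone-marrow osteoclast precursors cultured 8 days with 20 ng/ml M-CSF and 30 ng/ml RANKL in presence of compound. TRAP-positive cells with ≥3 nuclei counted; inhibition expressed relative to untreated control set at 100%.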

osteoclasts = assay: Resorption activity of osteoclasts on calcium phosphate-coated plates (resorption pit area); type: cell-based, mice; conditions: for Resorption activity of osteoclasts, %: control = 100; for area of resorption pits compared to the control: text summary, concentration not stated
Experimental: First, bone marrow cells were isolated, as follow. After sacrificing 7-9 week female mice by cervical dislocation, femur and tibia were excised aseptically while removing attached soft tissues. After cutting both ends of long bones, 1 ml of an enzyme solution, containing 0.1% collagenase (Gibco), 0.05% trypsin and 0.5 mM EDTA (Gibco), was injected to the bone marrow cavity at one end using a syringe with a 26-guage needle, and bone marrow was then collected. After shaking the recovered bone marrow for 30 min, bone marrow cells were collected, and cultured in α-minimum essential medium (α-MEM) supplemented with 10% FBS for 24 hrs. Then, non-adherent cells were collected, which are osteoclast pregenitors, aliquotted onto culture plates at a density of 2×10^5 cells per well, and cultured for 8 days in α-MEM supplemented with 20 ng/ml of macrophage-colony stimulating factor (M-CSF, Peprotech, USA) and 30 ng/ml RANKL (Peprotech, USA). During the 8 days of culturing, the cells were treated with the Compound 1. Thereafter, osteoclast formation was investigated by fixing the cultured cells and then carrying out TRAP staining, as described in the following Experimental Example 2.2. In addition, resorption activity of osteoclasts was investigated by measuring the absorption area after removing osteoclasts in cultures in calcium phosphate-coated plates, as described in Experimental Example 2.3, below.
The differentiated osteoclasts were cultured on calcium phosphate-coated plates (OAASTM, OCT, Korea) in order to evaluate resorption activity of the cells. After removing culture medium, to remove the adherent cells, the plates were washed with distilled water three times, and incubated in 5% sodium hypochlorite for 5 min. After washing again with distilled water and drying the plates, the area of formed resorption pits was calculated by means of an Image Pro Plus software.

Question: Which “effect on expression of osteoprotegerin (OPG) in osteoblasts (in words)” value (osteoprotegerin (OPG)) does the source give for `O=Cc1ccc(CO)o1` [Compound 1, 5-hydroxymethylfuran-2-carboxyaldehyde] here?
Answer: increases the expression of osteoprotegerin (OPG)

Question: What about the “OPG expression level in MG63 cells, %” value (osteoprotegerin (OPG); 10^−6 M Compound 1, 16 hrs) of the same compound?
Answer: 866.90 ± 10.59%

Question: And the “OPG expression level in MG63 cells, %” value (osteoprotegerin (OPG); 10^−8 M Compound 1, 16 hrs)?
Answer: 204.30 ± 14.96%

Question: What about the “cortical and trabecular bone compared to the control group, 40× magnification” value [1] of the same compound?
Answer: marked increase in the cortical and trabecualr bone

Question: And the “trabecular bone loss in tibia, light microscopy” value ([1]; 10 mg/day, 12.5× and 40× magnification)?
Answer: such trabecular bone loss was not observed; also recorded: no trabecular bone loss

Question: What about the “Inhibition rate against osteoclast formation, %” value (“Inhibition rate … %” for short) ([2]; 0.1 μM) of the same compound?
Answer: 0%

Question: And the “Inhibition rate … %” value ([2]; 1 μM)?
Answer: 0%

Question: And the “Inhibition rate … %” value ([2]; 10 μM)?
Answer: 30%

Question: And the “Resorption activity of osteoclasts, %” value (osteoclasts; 10^−4 M Compound 1, area of resorption pits)?
Answer: 52.34 ± 8.28%

Question: And the “Resorption activity of osteoclasts, %” value (osteoclasts; 10^−5 M Compound 1, area of resorption pits)?
Answer: 46.92 ± 3.60%

Question: And the “Resorption activity of osteoclasts, %” value (osteoclasts; 10^−6 M Compound 1, area of resorption pits)?
Answer: 41.75 ± 14.07%

Question: And the “Resorption activity of osteoclasts, %” value (osteoclasts; 10^−7 M Compound 1, area of resorption pits)?
Answer: 61.46 ± 10.35%

Question: And the “Resorption activity of osteoclasts, %” value (osteoclasts; 10^−8 M Compound 1, area of resorption pits)?
Answer: 66.03 ± 7.49%

Question: What about the “area of resorption pits compared to the control” value (osteoclasts) of the same compound?
Answer: about 50%

Question: And the “area of resorption pits compared to the control” value (osteoclasts; listed as Example 1)?
Answer: inhibit bone resorption activity of osteoclasts
